Patent publication US20080279791A1, “Use of Isoeugenol Methyl Ester as an Agent Against Bad Breath” (SYMRISE GMBH & CO. KG, priority 2004, published 2008)
In brackets after ≈: the same amount, converted by molar mass. Values belong to the molecule of their own block, whether it stands above or below them.

Tests used:
Format in all cases: cell-based
fresh morning saliva = assay: In-vitro test to reduce bad breath (medium inoculated with saliva, incubated, sniffed by panel)
Method: A sterile liquid medium inoculated with fresh morning saliva is incubated for a few days at 37° C. and then sniffed by a panel of testers.
As a control for the tests, Triclosan® (5-chloro-2-(2,4-dichlorophenoxy)phenol) was added to inoculated samples in a concentration of 0.05%.

Veilonella parvula = assay: Minimum inhibiting concentration, serial-dilution test
Method: (§1) The minimum inhibiting concentration (MIC) of isoeugenol methyl ether was determined in a serial-dilution test against various bacteria.

Porphyromonas gingivalis = assay: as above
Method: as §1

Prevotella intermedia = assay: as above
Method: as §1

Staphylococcus aureus = assay: as above
Method: as §1

Pseudomonas aeruginosa = assay: as above
Method: as §1

Fusobacterium nucleatum = assay: as above
Method: as §1

Streptococcus mutans = assay: as above
Method: as §1

Escherichia coli = assay: as above
Method: as §1

[1] = tested on: total number of bacteria in the samples of saliva; assay: Total number of bacteria in samples of saliva; details: concentration of 1000 ppm

SMILES: Oc1cc(Cl)ccc1Oc1ccc(Cl)cc1Cl [Triclosan®, 5-chloro-2-(2,4-dichlorophenoxy)phenol, reference compound]
odour after the incubation period (fresh morning saliva; 0.05% added to inoculated samples): the same faint odour of medium as the uninoculated samples

MIC (Veilonella parvula): 250 µg/mL (≈ 1400 µM) | MIC (Porphyromonas gingivalis): 500 µg/mL (≈ 2810 µM) | MIC (Prevotella intermedia): 500 µg/mL (≈ 2810 µM) | MIC (Staphylococcus aureus): > 1000 µg/mL | MIC (Pseudomonas aeruginosa): > 1000 µg/mL | MIC (Fusobacterium nucleatum): 250 µg/mL (≈ 1400 µM) | MIC (Streptococcus mutans): > 1000 µg/mL | MIC (Escherichia coli): > 1000 µg/mL
SMILES: CC=Cc1ccc(OC)c(OC)c1 (racemic) [isoeugenol methyl ether, 1,2-dimethoxy-4-propenyl benzene]
Type (Veilonella parvula; Veilonella parvula, 250 ppm): bacteriostatic action | Type of action (Porphyromonas gingivalis; 500 ppm): effectiveness | Type (Prevotella intermedia; 500 ppm): bactericidal action | Type (Staphylococcus aureus): No action up to 1000 ppm | Type (Pseudomonas aeruginosa): No action up to 1000 ppm | Type (Fusobacterium nucleatum; 250 ppm): bacteriostatic action | Type (Streptococcus mutans): No action up to 1000 ppm | Type (Escherichia coli): No action up to 1000 ppm | odour after the incubation period (fresh morning saliva; 0.01% added to inoculated samples): no odour | odour at sensory assessment (fresh morning saliva; 0.05% added to the inoculated medium just one hour before the sensory assessment): an unpleasant mixed odour of bad breath and a faint isoeugenol methyl ether note | odour after the incubation period (fresh morning saliva; concentrations of significantly less than 0.01%): a changed characteristic odour or a mixed odour was discernible in some cases | minimum effective concentration (fresh morning saliva; no odour after incubation of inoculated samples): 0.01% | reduction of the total number of bacteria in saliva samples [1]: no significant reduction
